The record followed here is US20260224574A1, “ANTIFUNGAL COMPOSITIONS AND METHODS OF USE THEREOF” (ARIZONA BOARD OF REGENTS ON BEHALF OF THE UNIVERSITY OF …, priority 2023, published 2026).

pIC50: −log10 of the molar value.

The subject of the first assay is Cne H99 strain. As to the kind of experiment: cell-based anti-Cryptococcus neoformans growth inhibition dose-response assay (resazurin to resorufin fluorescence). Particulars: Cne H99, concentration series 0.02-50 μM, 24 hours incubation. The procedure:
For primary screening, a cell-based high-throughput screening (HTS) assay was developed for testing the growth inhibition of Cne H99 strain of fungus. […] After standardizing the assay in 96 well plates, it was optimized in a 384-well plate.
The compound library included known bioactives, commercial libraries, and academic molecules. For HTS, the fungal cells were grown in SD broth overnight and diluted in Sabouraud dextrose (SD) broth to an optical density at 600 nm (OD600) of 0.5. […] From this cell suspension, 20 μL of the cells was added to each well of the 384-well assay plate (black, clear bottom) containing test compounds. Plates with test compounds were prepared by adding 20 μL of RPMI-MOPS medium to each well using a liquid dispenser (Thermo Multidrop Combi), followed by transferring 1 μL of the test compounds to all wells of the 22 columns in the assay plate using a robot. Dimethyl sulfoxide (DMSO) as vehicle control or 0.8 μM AmB as positive control was added manually to the remaining two columns using a multichannel pipet. […] Additionally, the absorbance was also read at 600 nm using the plate reader (EnVision, PerkinElmer).
Concentration series (0.02-50 μM) of test compounds and equalizing volume of DMSO were dispensed, using a liquid handler (D300e, Hewlett-Packard), to the 384-well plates. Following the addition of the Cne cells, the assay plates were incubated for 24 hours, followed by a fluorescence reading of resorufin as explained for single-concentration screening. The IC50 was calculated by graphpad prism.
As for `Clc1ccc(CCNc2ncnc3sccc23)cc1` [compound 1], the pIC50 is 6.46. On to `c1ccc(CN2CCOc3ccccc3CCCCC3(CCNCC3)C2)cc1` [compound 2], for which the pIC50 was 6.24.

`COc1ccc(OCc2nnc3sc(-c4ccc5c(c4)OCCO5)nn23)cc1` [compound 3]: the pIC50 is 6.22.

Take `Clc1cc(Cl)c(OCC#CI)cc1Cl` [compound 6]: the pIC50 is 5.84. `Nc1ccc2ncnc(NCCc3ccc(Oc4ccccc4)cc3)c2c1` [compound 10] gave a pIC50 of 5.74. The compound `O=c1nc(SCc2ccc(F)cc2)c2c(n1Cc1ccccc1)CCC2` [compound 11] showed a pIC50 of 5.64.

`CC(C)CCNCC(O)Cn1c2ccc(Br)cc2c2cc(Br)ccc21` (stereo not shown) [compound 12]: the pIC50 was 5.62. In turn, `O=C(O)c1ccc(-c2ccc3cc(C45CC6CC(CC(C6)C4)C5)c(O)cc3c2)cc1` [compound 13] gave a negative logarithm of the IC50 (pIC50) of 5.61. The same measure, in the same setting: then `CCOC(=O)c1sc(NC(=O)c2ccco2)c(SC#N)c1C` [compound 22], with 5.51. Still for that read-out and setting: then `CCCCCCCCc1ccc(CCC(N)(CO)CO)cc1` [compound 35], with 5.32. Same read-out and setting: the value for `COC(=O)c1sc(-c2cccs2)cc1N1C(=O)C=CC1=O` [compound 36] was 5.31; that for `Cc1ccc(S(=O)(=O)C=CC#N)cc1` [compound 39] was 5.29; that for `Cc1cc(C)cc(N2C(=O)C=CC2=O)c1` [compound 42] was 5.27.

Regarding `Cc1ccccc1Nc1nc(Nc2ccccc2)c2cnn(C)c2n1` [compound 44], the pIC50 is 5.27. Regarding `CCC(C)c1ccc(N2C(=O)C=CC2=O)cc1` (stereo not shown) [compound 45], the negative logarithm of the IC50 (pIC50) is 5.26. As to `NC(=O)c1cnc(NCCc2ccc(O)c(Cl)c2)nc1NCc1ccccc1` [compound 52], the pIC50 is 5.20. Same read-out and setting: then `CCCCOc1ccc(-c2cc3c(N4CCN(CC)CC4)nccn3n2)cc1` [compound 69], with 5.09. Compound `COc1ccc(CC2NCC(O)C2OC(C)=O)cc1` (stereo not shown) [compound 81] gave a negative logarithm of the IC50 (pIC50) of 5.01.

Still in this assay, the particulars now being: Cryptococcus neoformans, H99STRAIN, Cne H99, concentration series 0.02-50 μM, 24 hours incubation.
In turn, `CC[n+]1c(/C=C/C=C2/N(C)c3ccccc3C2(C)C)sc2ccccc21` [compound 7] gave a negative-log IC50 (pIC50) of 5.80. With `OCCCNc1cc(-c2ccnc(Nc3cccc(Cl)c3)n2)ccn1` [compound 8], the pIC50 was 5.78.

Turning to `Cc1ccc(NC(=O)Nc2ncc(-c3ccccc3)n2C)cc1Cl` [compound 9], the pIC50 is 5.77.

`c1cc2c(cc1C1CCCCC1)c1c3n2CCNC3CCC1` (stereo not shown) [compound 14] had a pIC50 of 5.60. On the same count and under the same terms, the value for `Cc1cccc2c1-c1sc(C(=O)NCCCN3CCC(Cc4ccccc4)CC3)cc1CO2` [compound 15] was 5.60; that for `CNC(=O)c1ccccc1Nc1nc(Nc2ccc(N3CCOCC3)cc2OC)ncc1Cl` [compound 16] was 5.59.

`Clc1ccc(C(c2ccc(Cl)cc2)[n+]2ccn(CC(OCc3ccc(Cl)cc3Cl)c3ccc(Cl)cc3Cl)c2)cc1` (stereo not shown) [compound 17] gave a pIC50 of 5.58. The compound `Cc1ccc(CNc2nc(C)nc3onc(C)c23)cc1` [compound 18] gave a pIC50 of 5.56. Still for that read-out and setting: the value for `Cc1nc(NCCC2=CCCCC2)c2c(C)noc2n1` [compound 19] was 5.53; that for `Cc1c(Cl)cccc1N1C(=O)C=CC1=O` [compound 20] was 5.53. On the same count and under the same terms, the value for `O=c1nc(SCc2ccccc2)c2c(n1Cc1ccccc1)CCC2` [compound 21] was 5.52. Turning to `CCc1noc2nc(C)nc(NCCC3=CCCCC3)c12` [compound 23], the pIC50 is 5.50.

`Cc1ccc(Nc2nc3nonc3nc2Nc2ccccc2F)cc1Cl` [compound 24] gave a pIC50 of 5.50. Consider `O=C(NNc1ccccc1)c1ccncc1` [compound 25], for which the pIC50 is 5.51. Compound `CCn1c2ccccc2c2cc(N3C(=O)C=CC3=O)ccc21` [compound 26] gave a pIC50 of 5.50. On to `CCCCc1ccc(N2C(=O)C=CC2=O)cc1` [compound 27], for which the pIC50 is 5.49. As for `CCCCCCCCCCCCCCCC[N+](C)(C)CCN(Cc1ccc(OC)cc1)c1ncccn1` [compound 28], the pIC50 is 5.47.

In the case of `COc1cccc(-c2cc(F)ccc2[C@H]2Cc3nc(N)nc(C)c3C(=O)N2)n1` [compound 29], the pIC50 is 5.44. On to `CC(C)CCOc1cccc(OCC(=O)Nc2ccncc2)c1` [compound 30], for which the pIC50 was 5.40.

The compound `CCc1noc2ncnc(NCCC3=CCCCC3)c12` [compound 31] had a pIC50 of 5.39. `O=C1C=CC(=O)N1c1ccccc1Br` [compound 32] showed a pIC50 of 5.34. `Oc1cccnc1NC(c1ccc(Cl)cc1)c1ccc2cccnc2c1O` (stereo not shown) [compound 33] gave a pIC50 of 5.33.

`O=C(Nc1ccc(Br)c(C(F)(F)F)c1)c1cccs1` [compound 38] showed a negative-log IC50 (pIC50) of 5.30. Same read-out and setting: the value for `COC(=O)Nc1nc2cc(SC(C)C)ccc2[nH]1` [compound 40] was 5.29; that for `O=[N+]([O-])/C=C/c1ccc2c(c1)OCO2` [compound 43] was 5.27; that for `COc1ccc(OCc2nnc3sc(-c4ccc(OC)c(OC)c4)nn23)cc1` [compound 47] was 5.25.

Consider `O=C1C=CC(=O)N1CCc1ccccc1` [compound 48], for which the pIC50 is 5.25. Take `c1ccc(CCNc2ncnc3ccsc23)cc1` [compound 49]: the pIC50 is 5.23. `CCCCCCCCCOc1ccc2[nH]cc(CCN)c2c1` [compound 50] gave a pIC50 of 5.22. Compound `OC(CNCc1ccc(-c2ccc(Cl)cc2Cl)o1)c1ccccc1` (stereo not shown) [compound 51] had a pIC50 of 5.22. `Cc1noc2ncnc(N3CCC(c4ccccc4)C3)c12` (stereo not shown) [compound 53]: the pIC50 was 5.20.

Compound `CC(C)(c1ccc(OCC2CO2)cc1)c1ccc(OCC2CO2)cc1` (stereo not shown) [compound 54] gave a pIC50 of 5.19. Same read-out and setting: the value for `Clc1ccc(-c2ccc(CNCc3ccc4c(c3)OCO4)o2)cc1` [compound 55] was 5.18. The compound `CCOC(=O)C1CCN(c2ncnc3scc(C)c23)CC1` [compound 56] had a pIC50 of 5.18.

As to `COc1cc(Nc2ncc3ccn(-c4cccc(CCC#N)c4)c3n2)cc(OC)c1OC` [compound 57], the pIC50 was 5.16. `Cc1oc2ncnc(N3CCC(C(=O)NCc4ccc(Cl)cc4)CC3)c2c1C` [compound 58] had a pIC50 of 5.16. The same measure, in the same setting: the value for `Cc1ccc(Cl)cc1N1CCN(C(=O)C2CCN(Cc3nc(-c4ccc(Cl)cc4)oc3C)CC2)CC1` [compound 59] was 5.16. `O=C1C=CC(=O)N1c1ccc(-n2ccc(C(F)(F)F)n2)cc1` [compound 60]: the pIC50 is 5.15. The compound `Cc1ccc2nc(-c3ccc(N4C(=O)CC(N5CCC(C)CC5)C4=O)cc3)sc2c1` (stereo not shown) [compound 61] had a pIC50 of 5.14.

Take `O=c1c2ccccc2oc2cc(O)cc(O)c12` [compound 62]: the pIC50 was 5.12.

On to `O=C(Nc1ccc(F)c(Cl)c1)c1ccc(Nc2ccnc(-c3ccc(F)cc3)n2)cc1` [compound 63], for which the pIC50 is 5.12. With `COc1cc(CN2CCCCCCOc3ccccc3Oc3ccc(Cl)cc3NC(=O)C2)ccc1OCCN(C)C` [compound 64], the pIC50 is 5.11. For the compound `CC(C)(C)c1cc(C=C(C#N)C#N)cc(C(C)(C)C)c1O` [compound 65], the pIC50 is 5.10. As to `CCN(CC)CCN1COc2c(cc(Cl)c3cccnc23)C1` [compound 66], the pIC50 was 5.09.

With `O=C1C=CC(=O)N1Cc1ccc(Cl)cc1` [compound 67], the pIC50 was 5.09. For the compound `Brc1ccc(-c2ccc(CNCc3ccc4c(c3)OCO4)o2)cc1` [compound 68], the pIC50 was 5.09. As to `CSc1cccc(N2C(=O)C=CC2=O)c1` [compound 70], the negative logarithm of the IC50 (pIC50) was 5.09. The compound `CCN(CC)c1cc(C)c2cc(NC(=O)Nc3ccc(Br)cc3)ccc2n1` [compound 71] gave a pIC50 of 5.08. `Clc1ccc(-c2ccc(CNCc3ccccn3)o2)c(Cl)c1` [compound 72] showed a pIC50 of 5.07. Compound `CC(C)c1ccc2c(c1)CCC1C(C)(CN)CCCC21C` (stereo not shown) [compound 73] showed a negative-log IC50 (pIC50) of 5.07. `O=c1cc(-c2ccccc2)cc(-c2ccccc2)n1O` [compound 74] gave a pIC50 of 5.06. `COc1ccc(-c2cc(C(=O)NCCN3CCCCC3)c3cccc(-c4ccc(F)cc4)c3n2)cc1` [compound 75] had a pIC50 of 5.06. `Cc1ccc(Sc2cccc3nc(N)nc(N)c23)cc1` [compound 76] showed a pIC50 of 5.06. Still for that read-out and setting: then `CC1CCN(c2nc(Cl)nc3ccccc23)CC1` [compound 77], with 5.05. The compound `Nc1nc2ccc(Oc3ccccc3)cc2s1` [compound 78] had a pIC50 of 5.04. Regarding `CN(C)CC1COc2ccccc2C1=O` (stereo not shown) [compound 79], the pIC50 is 5.03.

The compound `O=C1C=CC(=O)N1c1ccccc1Oc1ccc(Cl)cc1Cl` [compound 80] showed a pIC50 of 5.02. Regarding `OC(CNCc1ccc(-c2cc(Cl)ccc2Cl)o1)c1ccccc1` (stereo not shown) [compound 82], the pIC50 is 5.01. `Cc1nn2c(NCCN(C)C)cc(C(C)(C)C)nc2c1-c1ccc(F)cc1` [compound 83]: the pIC50 is 5.00. On to `Brc1ccc(-c2ccc(CNCc3ccco3)o2)cc1` [compound 85], for which the pIC50 was 5.00.

`Cc1nc(NCc2ccccc2)c2c(C)noc2n1` [compound 86] gave a pIC50 of 5.00.
